From publication PMC7503500, “A Structure-Activity Relationship Comparison of Imidazodiazepines Binding at Kappa, Mu, and Delta Opioid Receptors and the GABAA Receptor” (Molecules, 2020)
Like-named read-outs stand apart in the source and are kept apart here.

How the values were obtained:
[1] = system: synaptic benzodiazepine-sensitive receptors (BZR), GABAAR; experiment: 3H-flunitrazepam binding, rat brain homogenate; conditions: for BZR % (percent inhibition): at 10,000 nM; for Ki: read-out: BZR (Ki)
µ opioid receptor (MOR) = µ opioid receptor (MOR) (Homo sapiens, UniProt P35372); experiment: Radioligand competition binding, MOR ([3H]-DAMGO), HEK293 cell homogenates; conditions: [3H]-DAMGO; for inhibition at 10 µM: read-out: MOR % (percent inhibition), at 10,000 nM; for MOR % (percent inhibition): at 10,000 nM
δ opioid receptor (DOR) = δ opioid receptor (DOR) (Homo sapiens, UniProt P41143); experiment: Radioligand competition binding, DOR ([3H]-DADLE), HEK293 cell homogenates; conditions: for inhibition at 10 µM: read-out: DOR % (percent inhibition), at 10,000 nM; for DOR % (percent inhibition): at 10,000 nM
κ opioid receptor (KOR) = κ opioid receptor (KOR) (Homo sapiens, UniProt P41145); experiment: Radioligand competition binding, KOR ([3H]-U69593), HEK293 cell homogenates; conditions: for inhibition at 10 µM: read-out: KOR % (percent inhibition), at 10,000 nM; for inhibition at 10 µM / KOR % (percent inhibition): [3H]-U69593; for KOR % (percent inhibition): at 10,000 nM
[2] = read-out: KOR (Ki), [3H]-U69593, HEK293 homogenates

Structure (SMILES) | BZR % (percent inhibition) [1] | Ki [1] | inhibition at 10 µM (µ opioid receptor (MOR)) | inhibition at 10 µM (δ opioid receptor (DOR)) | Ki (κ opioid receptor (KOR)) | inhibition at 10 µM (κ opioid receptor (KOR)) | MOR % (percent inhibition) (µ opioid receptor (MOR)) | DOR % (percent inhibition) (δ opioid receptor (DOR)) | KOR % (percent inhibition) (κ opioid receptor (KOR)) | Ki (κ opioid receptor (KOR); [2]) | Ki (µ opioid receptor (MOR); read-out: MOR Ki, HEK293 homogenates)
C#Cc1ccc2c(c1)C(c1ccccc1F)=N[C@@H](C)c1c(C(=O)OC(C)C)ncn1-2 [GL-I-31] | 97% | 245 nM | 32% | 8% | 65 nM | 94% |  |  |  |  | 
C#Cc1ccc2c(c1)C(c1ccccc1F)=N[C@@H](C)c1c(C(=O)OCCC)ncn1-2 [GL-I-32] | 98% | 148 nM | 9% | 14% | 64 nM | 95% |  |  |  |  | 
C#Cc1ccc2c(c1)C(c1ccccc1F)=N[C@@H](C)c1c(C(=O)OC(C)(C)CC)ncn1-2 [GL-I-33] | 96% | 117 nM | 30% | 25% | 34 nM | 94% |  |  |  |  | 
C#Cc1ccc2c(c1)C(c1ccccc1F)=N[C@@H](C)c1c(C(=O)OCC(F)(F)F)ncn1-2 [GL-I-36] | 77% | 418 nM | 8% | 0% | 411 nM | 85% |  |  |  |  | 
C#Cc1ccc2c(c1)C(c1ccccc1F)=N[C@@H](C)c1c(C(=O)OC3CC3)ncn1-2 [GL-I-38] | 96% | 127 nM | 18% | 16% | 68 nM | 95% |  |  |  |  | 
C#Cc1ccc2c(c1)C(c1ccccc1F)=N[C@@H](C)c1c(C(=O)NC(C)(C)C)ncn1-2 [GL-I-41] | 90% | 140 nM | 40% | 10% | 39 nM | 97% |  |  |  |  | 
C#Cc1ccc2c(c1)C(c1ccccc1F)=N[C@@H](C)c1c(C(=O)NCC)ncn1-2 [GL-I-43] | 94% | 44 nM | 22% | 3% | 102 nM | 95% |  |  |  |  | 
C#Cc1ccc2c(c1)C(c1ccccc1F)=N[C@@H](C)c1c(C(=O)N(C)C)ncn1-2 [GL-I-54] | 94% | 90 nM | 18% | 11% | 788 nM | 78% |  |  |  |  | 
C#Cc1ccc2c(c1)C(c1ccccc1F)=N[C@@H](C)c1c(C(=O)NC3CC3)ncn1-2 [GL-I-55] | 95% | 20 nM | 17% | 24% | 150 nM | 93% |  |  |  |  | 
C#Cc1ccc2c(c1)C(c1ccccc1F)=N[C@@H](C)c1c(-c3nc(C)no3)ncn1-2 [GL-I-65] | 79% | 1150 nM |  |  |  |  | 2% | 7% | 88% | 222 nM | 
C#Cc1ccc2c(c1)C(c1ccccc1F)=N[C@@H](C)c1c(-c3nc(CC)no3)ncn1-2 [GL-I-66] | 80% | 654 nM |  |  |  |  | 28% | 2% | 92% | 212 nM | 
C#Cc1ccc2c(c1)C(c1ccccc1F)=N[C@@H](C)c1c(C(=O)SCC)ncn1-2 [GL-I-77] | 92% | 124 nM | 41% | 4% | 125 nM | 95% |  |  |  |  | 
CCOC(=O)c1ncn2c1[C@H](C)N=C(c1ccccc1F)c1cc(C3CC3)ccc1-2 [GL-I-78] | 76% | 352 nM |  |  |  |  | 32% | 41% | 96% |  | 
C#Cc1ccc2c(c1)C(c1ccccc1F)=N[C@@H](C)c1c(-c3nc(C(C)C)no3)ncn1-2 [GL-I-81] | 83% | 839 nM |  |  |  |  | 64% | 25% | 93% | 127 nM | 2920 nM
CCOC(=O)c1ncn2c1[C@@H](C)N=C(c1ccccn1)c1cc(Br)ccc1-2 [GL-II-06] | 81% | 556 nM | 11% | 9% | 401 nM | 79% |  |  |  |  | 
C#Cc1ccc2c(c1)C(c1ccccn1)=N[C@H](C)c1c(C(=O)OCC)ncn1-2 [GL-II-19] | 71% | 1140 nM | 17% | 2% |  | 44% |  |  |  |  | 
C#Cc1ccc2c(c1)C(c1ccccn1)=N[C@H](C)c1c(C(=O)O)ncn1-2 [GL-II-30] | 65% | 431 nM | 20% | 4% |  | 0% |  |  |  |  | 
C#Cc1ccc2c(c1)C(c1ccccn1)=N[C@H](C)c1c(C(=O)NC)ncn1-2 [GL-II-31] | 72% | 1700 nM | 17% | 3% |  | 23% |  |  |  |  | 
C#Cc1ccc2c(c1)C(c1ccccn1)=N[C@H](C)c1c(C(=O)OC)ncn1-2 [GL-II-32] | 63% | 1430 nM | 32% | 0% |  | 35% |  |  |  |  | 
C[C@H]1N=C(c2ccccn2)c2cc(Br)ccc2-n2cnc(C(=O)O)c21 [GL-II-51] | 84% | 181 nM | 0% | 0% |  | 11% |  |  |  |  | 
C#Cc1ccc2c(c1)C(c1ccccn1)=N[C@H](C)c1c(-c3nc(CC)no3)ncn1-2 [GL-II-54] | 66% | 2040 nM |  |  |  |  | 0% | 0% | 80% | 504 nM | 
C#Cc1ccc2c(c1)C(c1ccccc1F)=N[C@H](C)c1c(C(=O)N(C)C)ncn1-2 [GL-II-73] | 75% | 506 nM | 6% | 0% | 1190 nM | 58% |  |  |  |  | 
C#Cc1ccc2c(c1)C(c1ccccc1F)=N[C@H](C)c1c(C(=O)NCC)ncn1-2 [GL-II-74] | 84% | 68 nM | 10% | 0% | 194 nM | 86% |  |  |  |  | 
C#Cc1ccc2c(c1)C(c1ccccc1F)=N[C@H](C)c1c(C(=O)NC3CC3)ncn1-2 [GL-II-75] | 85% | 93 nM | 0% | 3% | 278 nM | 81% |  |  |  |  | 
C#Cc1ccc2c(c1)C(c1ccccc1F)=N[C@H](C)c1c(C(=O)N3CCCC3)ncn1-2 [GL-II-76] | 43% |  | 0% | 0% | 371 nM | 80% |  |  |  |  | 
C#Cc1ccc2c(c1)C(c1ccccn1)=NCc1c(C(=O)OCC)ncn1-2 [Hz-166] |  |  | 6% | 49% | 3820 nM | 60% |  |  |  |  | 
